Assay in all cases: NCI tumour cell line growth inhibition, 48 h
Experiment [1] concerns PC-3 prostate.
Experiment [2] deals with MDA-MB-231 breast.
Experiment [3] relates to M19-MEL melanoma.
In experiment [4] the test system is 786-0 renal.
Experiment [5] relates to SF-539 CNS.
Experiment [6] relates to DLD-1 colon.
Experiment [7] relates to P388 leukemia.
Experiment [8] deals with SNB-78 CNS.
The subject of experiment [9] is XF 498 CNS.
For experiment [10], the system named is DMS 273 small cell lung.
Experiment [11] deals with P388/ADR leukemia.
Experiment [12] concerns DMS 114 small cell lung.
Experiment [13] concerns HOP-18 NSCLC.
Experiment [14] concerns LXFL 529 NSCLC.

“And” between values parts separate entries of the source, which are not always exact repeats. Identical values can stand only once.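 These data come from cells grown in 96-well plates and exposed to compound for 48 hours at five concentrations. The concentration for 50% growth inhibition is given as GI50. TGI: total growth inhibition.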

Turning to `COc1cc([C@@H]2c3cc4c(c(O)c3C[C@H]3COC(=O)[C@@H]32)OCO4)cc(OC)c1OC`, the GI50 in [1] was 0.0428 µM and 0.161 µM; in experiment [2], 0.392 µM; in [3] it was 0.000137 µM; in [5], 0.065 µM; in experiment [6], 0.0646 nM; in experiment [8], 0.011 nM. The TGI in [1] was over 241 µM; in [2], over 100 µM; in experiment [4] it was 46.8 µM and > 100 µM; in [7], 0.551 µM; in [9], 0.0887 µM; in experiment [10], 1.5 µM. For the same molecule, the results for the TGI in experiment [11], in experiment [12] and in [13] were 35.1 µM, 1.5 µM and 61.9 µM, respectively.
As for `Cc1nc2c(c(=O)[nH]1)S/C(=C(/C#N)c1nc3ccccc3[nH]1)N2c1ccccc1`, the TGI in experiment [3], in experiment [5], in experiment [6], in experiment [8], in experiment [9] and in experiment [10] was over 100 µM throughout. In addition, the TGI in experiment [14] and in experiment [12] was over 100 µM each time.
`COc1ccc2c(c1O)-c1cc(O)cc3c1[C@@H](C2)N(C)CC3`: the TGI in [3] stood at 128 µM; in [5], 153 µM; in [6], 121 µM; in experiment [7], 106 µM; in [8], 212 µM; in experiment [9] it was 160 µM. The TGI came out at 127 µM in experiment [10] and 180 µM in experiment [11].
As to `O=C1C(Cl)N(c2cccc(Cl)c2)C1c1c[nH]c2ccccc12` (stereo not drawn), the TGI in experiment [3], in [5], in [9], in experiment [14] and in experiment [12] was over 100 µM in each case.
Regarding `Nc1ccccc1Nc1ccccc1C(=O)[O-].Nc1ccccc1Nc1ccccc1C(=O)[O-].[Zn+2]`, the TGI is over 100 µM in experiment [4], over 100 µM in experiment [5] and 78.7 µM in experiment [9].
In the case of `Cc1cc(O)c2c(c1O)C(=O)c1cccc(O)c1C2=O`, the TGI in experiment [1], in experiment [2], in experiment [4] and in [5] was over 100 µM throughout.
In the case of `C(/C=C/c1ccccc1)=Nc1ccc2c(c1)Cc1ccccc1-2`, the TGI in [1], in experiment [2] and in [4] was over 100 µM each time.
For `COc1cc(C2S/C(=C/c3ccccc3)C(=O)N2c2ccc(NC(C)=O)cc2)cc(OC)c1OC` (stereo not drawn), the TGI was determined as 48.1 µM in experiment [1] and 41.3 µM in experiment [2].
Take `NC(CSCc1ccc(I)cc1)C(=O)O` (stereo not drawn): the TGI in experiment [1], in [2] and in experiment [4] was over 100 µM in each case.
Take `CC[C@@H]1ON(C)[C@H]2CN(C)C(=O)[C@@H]12`: the TGI in experiment [1] and in [2] was over 100 µM in each case.
`Cc1c(C)c(C)c(CC2(C)CSC2)c(CC2(C)CSC2)c1C`: the TGI in [1], in experiment [2], in experiment [4] and in experiment [5] was over 100 µM throughout.
As for `COc1ccc(-c2csc(=Nc3ccccc3)n2CCCN(C)C)cc1`, the TGI in experiment [1] is 30.2 µM; in [2], over 100 µM; in [5], 32 µM.
In the case of `NC(=S)N/N=C/c1nccc2ccccc12`, the TGI was 3.41 µM in experiment [3]; 9.11 µM in experiment [5]; over 100 µM in experiment [6]; 12.9 µM in experiment [10]; over 100 µM in experiment [14]; 2.51 µM in experiment [12]. Besides, the TGI in experiment [13] is over 100 µM.
Take `CCN1CCCC(C#N)(c2ccccc2)CC1` (stereo not drawn): the TGI in [1] and in [4] was over 100 µM each time.
As to `CN(C)CCCC1c2ccccc2Oc2ccc(C(F)(F)F)cc21` (stereo not drawn), the TGI was found to be 27.1 µM in experiment [1], 26 µM in experiment [2], 26.7 µM in experiment [4] and 29.5 µM in [5].

The values are drawn from PubChem BioAssay (NCI).
